How the values were obtained:
Type in all cases: in vivo
[1] = test system: Alopecurus myosuroides (ALOMY); assay: Pre-emergence herbicidal activity, glasshouse pot test; conditions: rate 500 g/ha, evaluated after 20 days; for pest or weed control at 500 g/ha: Alopecurus myosuroides, 480 h, read-out: Pre-emergence activity, ALOMY (100=total damage to plant; 0=no damage to plant)
In short: (§1)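 Damage was rated visually 20 days after treatment, from 0 (none) to 100 (plant killed). Treatment was a pre-emergence spray of aqueous formulated compound applied to pots sown one day earlier in sterilised soil, with plants then kept under optimum greenhouse conditions.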

[2] = test system: Avena fatua (AVEFA); assay: as above; conditions: rate 500 g/ha, evaluated after 20 days; for pest or weed control at 500 g/ha: Avena fatua, 480 h, read-out: Pre-emergence activity, AVEFA (100=total damage to plant; 0=no damage to plant)
In short: as §1

[3] = test system: Digitaria sanguinalis (DIGSA); assay: as above; conditions: rate 500 g/ha, evaluated after 20 days; for pest or weed control at 500 g/ha: Digitaria sanguinalis, 480 h, read-out: Pre-emergence activity, DIGSA (100=total damage to plant; 0=no damage to plant)
In short: as §1

[4] = test system: Echinochloa crus-galli (ECHCG); assay: as above; conditions: rate 500 g/ha, evaluated after 20 days; for pest or weed control at 500 g/ha: Echinochloa crus-galli, 480 h, read-out: Pre-emergence activity, ECHCG (100=total damage to plant; 0=no damage to plant)
In short: as §1

[5] = test system: Lolium perenne (LOLPE); assay: as above; conditions: rate 500 g/ha, evaluated after 20 days; for pest or weed control at 500 g/ha: Lolium perenne, 480 h, read-out: Pre-emergence activity, LOLPE (100=total damage to plant; 0=no damage to plant)
In short: as §1

[6] = test system: Setaria faberi (SETFA); assay: as above; conditions: rate 500 g/ha, evaluated after 20 days; for pest or weed control at 500 g/ha: Setaria faberi, 480 h, read-out: Pre-emergence activity, SETFA (100=total damage to plant; 0=no damage to plant)
In short: as §1

[7] = test system: Alopecurus myosuroides (ALOMY); assay: Post-emergence herbicidal activity, glasshouse pot test; conditions: evaluated after 14 or 15 days; for pest or weed control at 500 g/ha / pest or weed control at 125 g/ha: Alopecurus myosuroides, read-out: Post-emergence activity, ALOMY (100=total damage to plant; 0=no damage to plant); for pest or weed control at 125 g/ha: rate 125 g/ha
In short: (§2)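 Foliar application to ten-day-old pot-grown seedlings; formulation: acetone plus solvent/surfactant blend (Emulsogen EL, NMP, DPGME, X-77), diluted in water. Scoring 14/15 d post-spray, 0–100% damage.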

[8] = test system: Avena fatua (AVEFA); assay: as above; conditions: evaluated after 14 or 15 days; for pest or weed control at 500 g/ha / pest or weed control at 125 g/ha: Avena fatua, read-out: Post-emergence activity, AVEFA (100=total damage to plant; 0=no damage to plant); for pest or weed control at 125 g/ha: rate 125 g/ha
In short: as §2

[9] = test system: Digitaria sanguinalis (DIGSA); assay: as above; conditions: evaluated after 14 or 15 days; for pest or weed control at 500 g/ha / pest or weed control at 125 g/ha: Digitaria sanguinalis, read-out: Post-emergence activity, DIGSA (100=total damage to plant; 0=no damage to plant); for pest or weed control at 125 g/ha: rate 125 g/ha
In short: as §2

[10] = test system: Echinochloa crus-galli (ECHCG); assay: as above; conditions: evaluated after 14 or 15 days; for pest or weed control at 500 g/ha / pest or weed control at 125 g/ha: Echinochloa crus-galli, read-out: Post-emergence activity, ECHCG (100=total damage to plant; 0=no damage to plant); for pest or weed control at 125 g/ha: rate 125 g/ha
In short: as §2

[11] = test system: Lolium perenne (LOLPE); assay: as above; conditions: evaluated after 14 or 15 days; for pest or weed control at 500 g/ha / pest or weed control at 125 g/ha: Lolium perenne, read-out: Post-emergence activity, LOLPE (100=total damage to plant; 0=no damage to plant); for pest or weed control at 125 g/ha: rate 125 g/ha
In short: as §2

[12] = test system: Setaria faberi (SETFA); assay: as above; conditions: evaluated after 14 or 15 days; for pest or weed control at 500 g/ha / pest or weed control at 125 g/ha: Setaria faberi, read-out: Post-emergence activity, SETFA (100=total damage to plant; 0=no damage to plant); for pest or weed control at 125 g/ha: rate 125 g/ha
In short: as §2

| SMILES | pest or weed control at 500 g/ha [1] [%] | pest or weed control at 500 g/ha [2] [%] | pest or weed control at 500 g/ha [3] [%] | pest or weed control at 500 g/ha [4] [%] | pest or weed control at 500 g/ha [5] [%] | pest or weed control at 500 g/ha [6] [%] | pest or weed control at 500 g/ha ([7]; rate 500 g/ha) [%] | pest or weed control at 500 g/ha ([8]; rate 500 g/ha) [%] | pest or weed control at 500 g/ha ([9]; rate 500 g/ha) [%] | pest or weed control at 500 g/ha ([10]; rate 500 g/ha) [%] | pest or weed control at 500 g/ha ([11]; rate 500 g/ha) [%] | pest or weed control at 500 g/ha ([12]; rate 500 g/ha) [%] | pest or weed control at 125 g/ha [7] [%] | pest or weed control at 125 g/ha [8] [%] | pest or weed control at 125 g/ha [9] [%] | pest or weed control at 125 g/ha [10] [%] | pest or weed control at 125 g/ha [11] [%] | pest or weed control at 125 g/ha [12] [%] | further results |
| --- | --- | --- | --- | --- | --- | --- | --- | --- | --- | --- | --- | --- | --- | --- | --- | --- | --- | --- | --- |
| CCc1cc(C)cc(CC)c1C1=C(O)CC(CC(C)S(C)(=O)=O)CC1=O (stereo not drawn) [Compound T30] | 80 | 80 | 100 | 100 | 90 | 100 | 70 | 90 | 100 | 100 | 80 | 100 |  |  |  |  |  |  |  |
| CCc1cc(C)cc(CC)c1C1=C(O)CC(CCS(C)(=O)=O)CC1=O (stereo not drawn) [Compound T31] |  |  |  |  |  |  |  |  |  |  |  |  |  |  |  |  |  |  | Pre-emergence activity, ALOMY (100=total damage to plant; 0=no damage to plant) [1]: 80; Pre-emergence activity, AVEFA (100=total damage to plant; 0=no damage to plant) [2]: 80; Pre-emergence activity, DIGSA (100=total damage to plant; 0=no damage to plant) [3]: 100; Pre-emergence activity, ECHCG (100=total damage to plant; 0=no damage to plant) [4]: 100; Pre-emergence activity, LOLPE (100=total damage to plant; 0=no damage to plant) [5]: 100; Pre-emergence activity, SETFA (100=total damage to plant; 0=no damage to plant) [6]: 100; Post-emergence activity, ALOMY (100=total damage to plant; 0=no damage to plant) ([7]; rate 500 g/ha): 80; Post-emergence activity, AVEFA (100=total damage to plant; 0=no damage to plant) ([8]; rate 500 g/ha): 60; Post-emergence activity, DIGSA (100=total damage to plant; 0=no damage to plant) ([9]; rate 500 g/ha): 100; Post-emergence activity, ECHCG (100=total damage to plant; 0=no damage to plant) ([10]; rate 500 g/ha): 100; Post-emergence activity, LOLPE (100=total damage to plant; 0=no damage to plant) ([11]; rate 500 g/ha): 90; Post-emergence activity, SETFA (100=total damage to plant; 0=no damage to plant) ([12]; rate 500 g/ha): 100 |
| CCCSC(C)CC1CC(=O)C(c2c(CC)cc(C)cc2CC)=C(O)C1 (stereo not drawn) [Compound T32] | 90 | 80 | 100 | 100 | 100 | 100 | 80 | 80 | 100 | 100 | 90 | 100 |  |  |  |  |  |  |  |
| CCCSC(C)CC1CC(=O)C(c2c(C)cc(C)cc2C)=C(O)C1 (stereo not drawn) [Compound T35] | 90 | 80 | 90 | 70 | 80 | 80 | 90 | 70 | 70 | 70 | 80 | 50 |  |  |  |  |  |  |  |
| CCC[S+]([O-])C(C)CC1CC(=O)C(c2c(CC)cc(C)cc2CC)=C(O)C1 (stereo not drawn) [Compound T37] | 100 | 90 | 100 | 100 | 100 | 100 | 90 | 90 | 80 | 100 | 90 | 50 |  |  |  |  |  |  |  |
| CCc1cc(C)cc(CC)c1C1=C(O)CC(CC(C)SC(C)C)CC1=O (stereo not drawn) [Compound T38] | 90 | 70 | 70 | 70 | 100 | 60 | 90 | 100 | 70 | 70 | 90 | 80 |  |  |  |  |  |  |  |
| Cc1cc(C)c(C2=C(O)CC(CC(C)SC(C)C)CC2=O)c(C)c1 (stereo not drawn) [Compound T39] | 70 | 70 | 90 | 60 | 80 | 70 |  |  |  |  |  |  | 10 | 0 | 30 | 20 | 0 | 10 |  |
| CCCS(=O)(=O)C(C)CC1CC(=O)C(c2c(C)cc(C)cc2C)=C(O)C1 (stereo not drawn) [Compound T40] | 80 | 50 | 50 | 70 | 90 | 60 |  |  |  |  |  |  | 80 | 30 | 50 | 60 | 80 | 50 |  |
| CCC[S+]([O-])C(C)CC1CC(=O)C(c2c(C)cc(C)cc2C)=C(O)C1 (stereo not drawn) [Compound T41] | 90 | 60 | 100 | 80 | 100 | 80 |  |  |  |  |  |  | 90 | 70 | 80 | 70 | 80 | 50 |  |
| CCc1cc(C)cc(CC)c1C1=C(O)CC2(CC[S+]([O-])CC2)CC1=O (stereo not drawn) [Compound T52] | 90 | 100 | 70 | 10 | 100 | 70 |  |  |  |  |  |  | 60 | 60 | 60 | 30 | 40 | 20 |  |
| CCc1cc(C)cc(CC)c1C1=C(O)CC2(CCS(=O)(=O)CC2)CC1=O [Compound T53] | 60 | 80 | 100 | 100 | 90 | 30 |  |  |  |  |  |  | 80 | 80 | 90 | 100 | 70 | 60 |  |
| CCc1cc(C)cc(CC)c1C1=C(O)CC(CC(C)S(=O)(=O)C(C)C)CC1=O (stereo not drawn) [Compound T54] | 100 | 80 | 100 | 100 | 100 | 80 |  |  |  |  |  |  | 80 | 60 | 70 | 80 | 80 | 50 |  |
